In patent US6528528B2 (Warner-Lambert Company, priority 1997, dated 2003):
Where two headings read alike, the source gives them in different places.

Assays:
[1] = molecular target: T1, rabbit reticulocyte 15-LO (Oryctolagus cuniculus, UniProt P12530); experiment: Rabbit Reticulocyte 15-LO Assay (h15LO); assay type: biochemical; conditions: for IC50: 2U rabbit reticulocyte 15-LO, 174 μM linoleic acid, 15 minutes at 4° C.; for h15LO, value given as bare %: concentration not given
T1 construct: Fifteen-lipoxygenase was obtained from phenylhydrazine-treated rabbits and purified per the method of Rapoport; from tissue; host or cells: reticulocytes of phenylhydrazine-treated rabbits
T1 sequence (P12530 1-663): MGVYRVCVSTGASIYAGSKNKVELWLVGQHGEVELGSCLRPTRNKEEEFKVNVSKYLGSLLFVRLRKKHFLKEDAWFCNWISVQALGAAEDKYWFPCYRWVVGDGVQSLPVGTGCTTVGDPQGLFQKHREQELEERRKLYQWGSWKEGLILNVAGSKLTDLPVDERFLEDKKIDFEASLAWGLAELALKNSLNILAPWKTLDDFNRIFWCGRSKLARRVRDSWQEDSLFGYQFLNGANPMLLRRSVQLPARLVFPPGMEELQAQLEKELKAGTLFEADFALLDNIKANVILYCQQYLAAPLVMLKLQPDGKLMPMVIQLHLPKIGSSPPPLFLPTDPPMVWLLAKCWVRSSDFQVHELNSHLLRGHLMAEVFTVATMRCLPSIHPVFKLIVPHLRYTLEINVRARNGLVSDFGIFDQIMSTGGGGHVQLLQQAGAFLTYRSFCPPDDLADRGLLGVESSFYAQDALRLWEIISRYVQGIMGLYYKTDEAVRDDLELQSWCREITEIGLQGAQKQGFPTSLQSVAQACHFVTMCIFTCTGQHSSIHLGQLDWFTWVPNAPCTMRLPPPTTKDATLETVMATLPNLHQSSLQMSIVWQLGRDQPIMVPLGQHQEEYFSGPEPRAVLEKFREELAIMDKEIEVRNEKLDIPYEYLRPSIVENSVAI
How it was run: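 Linoleic acid oxidation to 13-HPODE measured at 4° C. over 15 minutes, using 174 μM substrate and 2U enzyme purified from phenylhydrazine-treated rabbits in PBS/0.2% Na cholate. Product peak areas calibrated with authentic 13-HODE; inhibition expressed versus maximal reaction.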

[2] = Table 1, read-out: h15LO % Inhibition at 10 μM
[3] = 0.25 h, Table 2, read-out: h15LO % @ 10 μM

Row | SMILES | IC50 ([1]; Table 2) | melting point | other results
1 | COc1ccc(C(=O)Nc2ccc(F)cc2)cc1N [Example 8, 3-Amino-4-methoxy-N-(4-fluorophenyl)-benzamide] | – | 164 to 167 °C | IC50 ([1]; Table 1): 157 nM
2 | COc1ccc(C(=O)Nc2ccccc2)cc1Nc1cccc(Cl)c1 [Example 31, 3-(3-Chloro-phenylamino)-4-methoxy-N-phenyl-benzamide] | 10 nM | 168 to 170 °C | –
3 | Nc1cc(C(=O)Nc2ccccc2)ccc1F [Example 9, 3-Amino-4-fluoro-N-phenyl-benzamide] | – | 167 to 170 °C | inhibition at 10 µM [1, 2]: 38%
4 | COc1ccc(C(=O)Nc2ccccc2)cc1Oc1ccccc1 [Example 54, 3-Phenoxy-4-methoxy-N-phenyl-benzamide] | – | 200 to 201 °C | inhibition at 10 µM [1, 3]: 60%
5 | CCc1ccc(C(=O)Nc2ccccc2)cc1Nc1cccc(C(F)(F)F)c1 [Example 41, 4-Ethyl-3-(3-trifluoromethyl-phenylamino)-N-phenyl-benzamide] | – | 133 to 134 °C | inhibition at 10 µM [1, 3]: 65%
6 | O=C(Nc1ccccc1)c1ccc(F)c(Nc2ccccc2)c1 [Example 37, 3-Phenylamino-4-fluoro-N-phenyl-benzamide] | 2940 nM | 132 to 133 °C | –
7 | COc1ccc(NC(=O)c2ccc(Cl)c(Cl)c2)cc1N [Example 23, 3,4-Dichloro-N-(3-amino-4-methoxyphenyl)-benzamide] | – | 215 to 218 °C | IC50 ([1]; Table 1): 26 nM
8 | COc1ccc(C(=O)Nc2ccccc2)cc1Nc1cccc([N+](=O)[O-])c1 [Example 33, 3-(3-Nitro-phenylamino)-4-methoxy-N-phenyl-benzamide] | 12 nM | 220 to 221 °C | –
9 | O=C(Nc1ccccc1)c1cccc(Nc2ccccc2)c1 [Example 25, 3-Phenylamino-N-phenyl-benzamide] | 6430 nM | 134 to 135 °C | –
10 | COc1ccc(C(=O)Nc2ccc(Cl)cc2)cc1N [Example 2, 3-Amino-4-methoxy-N-(4-chlorophenyl)-benzamide] | – | 191 to 192 °C | IC50 ([1]; Table 1): 290 nM
11 | COc1ccc(C(=O)Nc2ccccc2)cc1Nc1ccc(C)cc1 [Example 34, 3-(4-Methyl-phenylamino)-4-methoxy-N-phenyl-benzamide] | 29 nM | 187 to 188 °C | –
12 | COc1ccc(C(=O)Nc2ccccc2)cc1Nc1ccc(C2=NC(C)(C)CO2)cc1 [Example 44, 3-[4-(4,4-Dimethyl-4,5-dihydro-oxazol-2-yl)-phenylamino]-4-methoxy-N-phenyl-benzamide] | 25 nM | 221 to 222 °C | –
13 | COc1ccc(C(=O)Nc2ccc(F)cc2F)cc1N [Example 14, 3-Amino-4-methoxy-N-(2,4-difluorophenyl)-benzamide] | – | 166 to 168 °C | inhibition at 10 µM [1, 2]: 68%
14 | CCOc1ccc(C(=O)Nc2ccccc2)cc1N [Example 10, 3-Amino-4-ethoxy-N-phenyl-benzamide] | – | 189 to 190 °C | inhibition at 10 µM [1, 2]: 42%
15 | COc1ccc(C(=O)Nc2ccc(C)c(C)c2)cc1N [Example 6, 3-Amino-4-methoxy-N-(3,4-dimethylphenyl)-benzamide] | – | 138 to 142 °C | inhibition at 10 µM [1, 2]: 79%
16 | COc1ccc(C(=O)Nc2ccc(F)c(F)c2)cc1Nc1cccc(C(F)(F)F)c1 [Example 48, 4-Methoxy-3-(3-trifluoromethyl-phenylamino)-N-(3,4-difluorophenyl)-benzamide] | 28 nM | 166 to 169 °C | –
17 | CSc1ccc(C(=O)Nc2ccccc2)cc1N [Example 20, 3-Amino-4-methylsulfanyl-N-phenyl-benzamide] | – | 143 to 145 °C | IC50 ([1]; Table 1): 203 nM
18 | COc1ccc(C(=O)Nc2ccccc2)cc1Nc1cccc(C)c1 [Example 32, 3-(3-Methyl-phenylamino)-4-methoxy-N-phenyl-benzamide] | 23 nM | 160 to 161 °C | –

Now from value to compound, other results behind:

Row | IC50 ([1]; Table 2) | melting point | SMILES | other results
19 | 39 nM | 201 to 202 °C | CCOc1ccc(C(=O)Nc2ccccc2)cc1NC(=S)Nc1cc(Cl)cc(Cl)c1 [Example 80, 3-[3-(3,5-Dichlorophenyl)-thioureido]-4-ethoxy-N-phenyl-benzamide] | –
20 | 14.9 nM | 183 to 185 °C | COc1ccc(C(=O)Nc2ccccc2)cc1NC(=S)Nc1cccc(C#N)c1 [Example 74, 3-[3-(3-Cyanophenyl)-thioureido]-4-methoxy-N-phenyl-benzamide] | –
21 | 137 nM | 175 to 177 °C | CCS(=O)(=O)Nc1cc(C(=O)Nc2ccccc2)ccc1OC [Example 134, 3-Ethanesulfonylamino-4-methoxy-N-phenyl-benzamide] | –
22 | 390 nM | 182 to 183 °C | COc1ccc(C(=O)Nc2ccccc2)cc1NC(=S)Nc1ccc(F)cc1 [Example 78, 3-[3-(4-Fluorophenyl)-thioureido]-4-methoxy-N-phenyl-benzamide] | –
23 | 1190 nM | 152 to 153 °C | COc1ccc(C(=O)Nc2ccccc2)cc1OC(=O)Oc1ccccc1 [Example 144, 2-Methoxy-5-phenylcarbamoyl-carbonic acid-phenyl ester phenyl ester] | –
24 | 11 nM | 174 to 175 °C | COc1ccc(C(=O)Nc2ccccc2)cc1NC(=S)Nc1ccc(Cl)c([N+](=O)[O-])c1 [Example 77, 3-[3-(4-Chloro-3-nitrophenyl)-thioureido]-4-methoxy-N-phenyl-benzamide] | –
25 | 20 nM | 174 to 175 °C | COc1ccc(C(=O)Nc2ccccc2)cc1NC(=S)Nc1ccc(Cl)c(Cl)c1 [Example 85, 3-[3-(3,4-Dichlorophenyl)-thioureido]-4-methoxy-N-phenyl-benzamide] | –
26 | 12 nM | 180 to 183 °C | COc1ccc(C(=O)Nc2ccccc2)cc1NS(=O)(=O)c1cccs1 [Example 142, 3-(Thiophene-2-sulfonylamino)-4-methoxy-N-phenyl-benzamide] | –
27 | 402 nM | 187 to 188 °C | COc1ccc(C(=O)Nc2ccccc2)cc1NS(=O)(=O)c1cccc2cccnc12 [Example 130, 3-(Quinoline-8-sulfonylamino)-4-methoxy-N-phenyl-benzamide] | –
28 | – | 225 to 227 °C | COc1ccc(C(=O)Nc2ccccc2)cc1NC(=NC#N)Nc1cc(Cl)cc(Cl)c1 [Example 256, 3-[[(Cyanoimino)[(3,5-dichlorophenyl)amino]methyl]amino]-4-methoxy-N-phenyl-benzamide] | h15LO, value given as bare % ([1]; Table 2): 45%
29 | 11 nM | 172 to 175 °C | CSc1ccc(C(=O)Nc2ccccc2)cc1NC(=S)Nc1cc(Cl)cc(Cl)c1 [Example 106, 3-[3-(3,5-Dichlorophenyl)-thioureido]-4-methylsulfanyl-N-phenyl-benzamide] | –
30 | 48 nM | 200 to 202 °C | COc1ccc(C(=O)Nc2ccccc2)cc1NS(=O)(=O)c1ccc(C)cc1 [Example 124, 3-(4-Methyl-benzenesulfonylamino)-4-methoxy-N-phenyl-benzamide] | –
31 | 17 nM | 180 to 185 °C | COc1ccc(C(=O)Nc2ccc(Cl)cc2)cc1NC(=S)Nc1cc(Cl)cc(Cl)c1 [Example 92, N-(4-Chlorophenyl)-3-[3-(3,5-dichlorophenyl)-thioureido]-4-methoxy-benzamide] | –
32 | – | 173 to 175 °C | COc1ccc(C(=O)Nc2ccccc2)cc1NC(=O)C(O)c1ccccc1 (stereo not drawn) [Example 257, 3-(2-Hydroxy-2-phenyl-acetylamino)-4-methoxy-N-phenyl-benzamide] | h15LO, value given as bare % ([1]; Table 2): 61%
33 | 14 nM | 190 to 193 °C | COc1ccc(C(=O)Nc2ccc(Cl)c(Cl)c2)cc1NC(=S)Nc1ccc(S(N)(=O)=O)cc1 [Example 105, N-(3,4-Dichlorophenyl)-4-methoxy-3-[3-(4-sulfamoyl-phenyl)-thioureido]-benzamide] | –
34 | 19 nM | 189 to 191 °C | COc1ccc(C(=O)Nc2ccc(Cl)c(Cl)c2)cc1NC(=S)Nc1cc(Cl)cc(Cl)c1 [Example 97, N-(3,4-Dichlorophenyl)-3-[3-(3,5-dichlorophenyl)-thioureido]-4-methoxy-benzamide] | –
35 | 48 nM | 205 to 210 °C | COc1ccc(C(=O)Nc2ccccc2)cc1NS(=O)(=O)c1cc(Br)c(Br)s1 [Example 126, 3-(4,5-Dibromothiophene-2-sulfonylamino)-4-methoxy-N-phenyl-benzamide] | –
36 | – | 130 to 131 °C | COc1ccc(C(=O)Oc2ccccc2)cc1Nc1ccccc1 [Example 55, 3-(Phenylamino)-4-methoxybenzoic Acid, Phenyl Ester] | inhibition at 10 µM [1, 3]: 54%
